Literature values in PMC10071776, “Binding proteins of destruxin A from Metarhizium against insect cell” (BMC Microbiology, 2023).
Where a SMILES comes first, the peptide text is derived from it. [ ]: non-standard residue; d: D form. dLac(3-vinyl) = C=CC[C@@H](O)C(=O)O; NMeV = CN[C@H](C(=O)O)C(C)C; NMeA = CN[C@@H](C)C(=O)O; βAla = NCCC(=O)O

Key:
[1] = system: hemocyte ATPase; settings: higher than DA; ref [13]
Source text: (§1) The multi-target strategy of destruxin has resulted from the evolution of interactions between Metarhizium spp. and insects. When Metarhizium spp. invades a host insect, it secretes a variety of structurally similar destruxins that attack as many tissues and organs. These produce a diseased state, weakening insect resistance and enabling successfully fungus colonization.

[2] = system: insects; settings: no reference given
Source text: as §1

[3] = system: tumor; settings: no reference given
Source text: as §1

[4] = stated in SPR method; no measurement described, no reference given

Compound | affinity of DB relative to DA [1] | insecticidal activity relative to DA [2] | antitumor activity relative to DA [3] | solubility in water [4]
destruxin B [DB] | 100 times | lower insecticidal activity than DA | greater antitumor activity than DA | –
C=CC[C@H]1OC(=O)CCNC(=O)[C@H](C)N(C)C(=O)[C@H](C(C)C)N(C)C(=O)[C@H]([C@@H](C)CC)NC(=O)[C@@H]2CCCN2C1=O [DA, Destruxin A] (cyclo(I[NMeV][NMeA][βAla][dLac(3-vinyl)]P)) | – | – | – | insoluble in water
